Where a name gives a salt, the structure may show the parent alone.
Experiments:
[1] = stated without a test; cited from earlier work
decoding sequence 1 = settings: for averaged equilibrium affinity constant (KA): first barcode group hybridized with its DNA decoding sequence, 37 individual nano-oscillators per probe; for Median of amplitude change for association: group 1 barcode nano-oscillators, hybridization signal
Protocol: (§1) To enable affinity-based barcoding, it is important to ensure nanoarrays are addressable by distinct affinities induced by different nucleotides mismatches. […] Perfectly matched, two and three-nucleotide mismatched complementary single DNA strains were used as barcode sequences on the nanocomplexes. Attributed to the charge-sensitive detection capability of nano-oscillators, hybridization of the charge-rich decoding DNA onto the nano-oscillators were recorded in real-time, enabling the calculation of hybridization affinities.
(§2) In FIG. 8, for each kind of barcode sequence, 37 individual nano-oscillators were measured for statistical study.
(§3) The second step of the measurement is decoding, which identifies the type of GPCRs on individual nano-oscillators, and was achieved by sequentially measuring the binding affinity of all decoding sequences. Each round of decoding flowed 50 nM of a specific readout sequence to hybridize with the barcodes on the nano-oscillator for 550 seconds, followed by buffer washing to dissociate the readout sequence for a duration of 250 seconds. Conducting the ligand screening before decoding can prevent potential issue of saturated oscillation amplitude change that may arise from excessively high negatively charged nano-oscillators after hybridization with the decoding sequence. Throughout all experiments, the injected sample was driven by a syringe pump and flowed onto the upper right portion of the field-of-view to minimize mass transport issues.
(§4) After recording the images, a region of interest (ROI) was selected on each particle (covering the parabolic tail), and the mean intensity within the ROI was calculated as the plasmonic intensity. An adjacent region with the same size was selected as the reference region, and its intensity was used to remove common noise from the ROI. The oscillation amplitude was obtained in every second using fast Fourier transform (FFT). The FFT intensity at the oscillation frequency was then plotted against time to illustrate both the binding trend and decoding process. Response curve fitting and calculation of binding kinetic constants were conducted using Scrubber (BioLogic Software). All data were visualized using Origin and MATLAB.

[2] = system: K082 virions with no GPCR displayed on the envelope; experiment: Control nano-oscillators: K082 virion with no GPCR, or AuNP only; settings: K082 virion with no GPCR displayed, or AuNP only without virion
Protocol: By fitting the binding curves with the first order kinetics model, the associate rate constant, dissociate rate constant and equilibrium constants for each nano-oscillator were obtained. […] To validate the individual nano-oscillator results, interactions of the same ligand with high density ensemble virion-oscillators were measured (FIG. 15). The binding response curves are the averaged oscillation amplitude of the entire ensemble area as a function of time. […] This phenomenon is likely due to the heterogeneity in GPCR expression level among individual virions, which will affect maximum binding signal, but not the binding kinetics.

decoding sequence 2 = settings: for Median of amplitude change for association: group 2 barcode nano-oscillators, hybridization signal; for averaged equilibrium affinity constant (KA): second barcode group hybridized with its DNA decoding sequence, 37 individual nano-oscillators per probe
Protocol: as §1, §2, §3, §4

Molecule | averaged equilibrium affinity constant (KA) (decoding sequence 1) | Median of amplitude change for association (decoding sequence 1) | Median of amplitude change for association (decoding sequence 2) | averaged equilibrium affinity constant (KA) (decoding sequence 2) | other results
Tocrifluor |  |  |  |  | charge at pH 7.4 [1]: neutral
biotin-(CH2)6-5′-ACACTACCTCGGCCCTCCTC-3′ [barcode 2 (group 1)] | (5.3±0.74)×10^7 M^−1 | 9.6 nm |  |  | 
CC(C)NCC(O)COc1cccc2ccccc12 (centres unmarked) [Propranolol, Propranolol hydrochloride] |  |  |  |  | oscillation amplitude response of control nano-oscillators to ligand [2]: not obvious responding
biotin-(CH2)6-5′-GAGTTGCTACAGACCTTCGT-3′ [barcode 1 (group 2)] |  |  | 11.6 nm | (7.1±0.98)×10^8 M^−1 | 
biotin-(CH2)6-5′-ACACTACCTCAGCCCTCCTC-3′ [barcode 3 (group 2)] |  |  | 7.2 nm | (2.0±0.78)×10^6 M^−1 | 
biotin-(CH2)6-5′-GAGTTACTACAGACCATCGT-3′ [barcode 2 (group 2)] |  |  | 10.9 nm | (6.5±1.1)×10^7 M^−1 | 
biotin-(CH2)6-5′-ACACTACCTCAGCCCTCCTC-3′ [barcode 3 (group 1)] | (5.9±0.82)×10^6 M^−1 | 7.5 nm |  |  | 
biotin-(CH2)6-5′-ACAATACCTCGGCCCTTCTC-3′ [barcode 1 (group 1)] | (8.1±1.1)×10^8 M^−1 | 9.7 nm |  |  | 

— patent US20250354986A1, “AFFINITY ENCODED OSCILLATOR ARRAYS, METHODS, AND RELATED ASPECTS FOR MEASURING MOLECULAR BINDING KINETICS” (ARIZONA BOARD OF REGENTS ON BEHALF OF ARIZONA STATE …, priority 2024, published 2025)
